Source: patent US20150031102A1, “METHODS AND COMPOSITIONS FOR ENHANCED PRODUCTION OF BUTANOL BY CLOSTRIDIA” (Butrolix LLC, priority 2012, published 2015)

Tested on: C. acetobutylicum
Experiment: Calculated optimum peptide treatment level (polynomial curve fitted to butanol concentration vs treatment level per culture transfer)
Assay type: cell-based, Clostridium acetobutylicum
Conditions: for Calculated Optimum Peptide Level, Average / Average optimum peptide treatment level: average over culture transfers; for Average optimum peptide treatment level: both experiments for BP110517, single non-inhibitory experiment for BP1106213, fairly large standard deviations; for Calculated optimum peptide treatment level: first experiment using BP110517
Text: FIG. 20. Calculation of optimum peptide treatment level for transfer 13 of the first experiment that tested peptide BP110517 (SEQ ID NO:143) (see Table 1 for data). The four butanol concentration data points were graphed against the treatment levels and a polynomial curve was fitted to the graph.
The data from the sequential batch culture experiments treated with peptides BP110517 and BP1106213 were used to calculate optimum peptide treatment levels for enhanced butanol production by C. acetobutylicum. The calculation was made for each culture transfer using the butanol concentration results from control and experimental wells. The four data points for each culture transfer were graphed against the treatment levels, and a polynomial curve was fitted to the graph.
Then, the first derivative of the polynomial fitted to the data for each culture transfer was solved for “x”, which was the maximum point of the fitted polynomial curve (Table 46). The resulting peptide concentration value was assumed to be close to an optimum peptide treatment level that would result in enhanced butanol production.

| Substance | Calculated Optimum Peptide Level, Average (Expt. 1) | Calculated Optimum Peptide Level, Average (Expt. 2) | Average optimum peptide treatment level | Calculated Optimum Peptide Level (transfer 4, Expt. 1) | Calculated Optimum Peptide Level (transfer 4, Expt. 2) | Calculated Optimum Peptide Level (transfer 7, Expt. 1) | Calculated Optimum Peptide Level (transfer 7, Expt. 2) | Calculated Optimum Peptide Level (transfer 10, Expt. 1) | Calculated Optimum Peptide Level (transfer 10, Expt. 2) | Calculated Optimum Peptide Level (transfer 13, Expt. 1) | Calculated Optimum Peptide Level (transfer 13, Expt. 2) | Calculated Optimum Peptide Level (transfer 16, Expt. 1) | Calculated Optimum Peptide Level (transfer 16, Expt. 2) | Calculated Optimum Peptide Level (transfer 19, Expt. 1) | Calculated Optimum Peptide Level (transfer 19, Expt. 2) | Calculated Optimum Peptide Level (transfer 22, Expt. 1) | Calculated Optimum Peptide Level (transfer 22, Expt. 2) | Calculated optimum peptide treatment level (transfer 4) | Calculated optimum peptide treatment level (transfer 22) |
| --- | --- | --- | --- | --- | --- | --- | --- | --- | --- | --- | --- | --- | --- | --- | --- | --- | --- | --- | --- |
| ILILISG (Derived from Clostridium acetobutylicum SEQ ID NO: 110) [peptide SEQ ID NO: 144] | 46.2 ± 10.7 nM | 40.5 ± 3.8 nM | mid to high 40 | 46.0 nM | Inhib. | 32.4 nM | Inhib. | 49.0 nM | Inhib. | Inhib.^d | 43.2 nM | 50.7 nM | Inhib. | 36.8 nM | Inhib. | 62.4 nM | 37.8 nM |  |  |
| SYPGWSW [peptide SEQ ID NO: 143] | 48.5 ± 9.9 nM | 43.9 ± 31.6 nM | mid to high 40 | 38.7 nM |  | 37.3 nM | 100 nM | 56.6 nM | 35.6 nM | 40.4 nM | 28.6 nM | 51.2 nM | 26.8 nM | 52.5 nM | 28.3 nM | 62.9 nM |  | 38.7 nM | 62.9 nM |
